Assay results published in ChEMBL document CHEMBL5230146, “Crystal Structures of Metallo-β-Lactamase (IMP-1) and Its D120E Mutant in Complexes with Citrate and the Inhibitory Effect of the Benzyl Group in Citrate Monobenzyl Ester” (J Med Chem, 2021).
Calls of active or inactive are those of the source. No cut-off for these calls is given here.

Experiments:
[1] = biological target: Metallo-beta-lactamase type 2 (Serratia marcescens) (UniProt P52699); assay: Inhibition of Serratia marcescens IMP-1 expressed in Escherichia coli BL21 (DE3) at 5 mM using cephalothin as substrate preincubated for 5 mins followed by substrate addition
[2] = biological target: Metallo-beta-lactamase type 2 (Serratia marcescens, UniProt P52699); assay: Inhibition of Serratia marcescens IMP-1 expressed in Escherichia coli BL21 (DE3) using cephalothin as substrate preincubated for 5 mins followed by substrate addition relative to citrate
[3] = biological target: Metallo-beta-lactamase type 2 (Serratia marcescens) (UniProt P52699); assay: Inhibition of Serratia marcescens IMP-1 expressed in Escherichia coli BL21 (DE3) at 5 mM using cephalothin as substrate preincubated for 5 mins followed by substrate addition relative to control

Sequence of Metallo-beta-lactamase type 2 (Serratia marcescens) (P52699 19-246 limits assumed): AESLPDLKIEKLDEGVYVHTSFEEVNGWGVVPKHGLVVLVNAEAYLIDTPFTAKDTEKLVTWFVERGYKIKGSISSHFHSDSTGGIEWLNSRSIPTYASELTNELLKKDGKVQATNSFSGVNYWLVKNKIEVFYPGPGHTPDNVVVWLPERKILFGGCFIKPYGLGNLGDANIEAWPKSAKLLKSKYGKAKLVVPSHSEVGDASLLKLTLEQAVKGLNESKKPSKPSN
Sequence of Metallo-beta-lactamase type 2 (P52699 whole entry): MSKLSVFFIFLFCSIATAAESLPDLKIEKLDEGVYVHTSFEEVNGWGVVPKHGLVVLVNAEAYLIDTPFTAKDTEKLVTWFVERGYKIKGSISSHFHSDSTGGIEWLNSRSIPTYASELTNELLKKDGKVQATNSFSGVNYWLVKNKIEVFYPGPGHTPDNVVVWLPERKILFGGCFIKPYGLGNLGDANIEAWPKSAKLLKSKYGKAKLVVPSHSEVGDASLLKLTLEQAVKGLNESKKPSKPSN

Compound	inhibition [1]	IC50 [2] [mM]	inhibition [3] [%]
O=C(O)CC(O)(CC(=O)O)C(=O)O	inactive	–	–
O=C(O)CC(O)(CC(=O)OCc1ccccc1)C(=O)O (stereo not drawn)	–	> 5	30
